Data: patent US8247211B2, “Glycopeptide antibiotics” (American Cyanamid Company, priority 2001, dated 2012)

How the values were obtained:
[1] = system: Staphylococcus aureus-SMITH (GC 4543); assay: Acute lethal infection in mice (ED50); type: in vivo; conditions: female CD-1 mice, intraperitoneal challenge, intravenous dose 30 min. after infection, 7 day survival ratios
Procedure, shortened: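 Female CD-1 mice (20 ± 1-2 g) were infected intraperitoneally with enough bacteria, suspended in Trypticase Soy Broth or hog gastric mucin, to kill untreated controls within 24-48 hr. Compound in saline or 5% dextrose was given intravenously 30 min after infection. ED50 came from pooled 7-day survival over 3 tests.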

Enterococcus sp. = assay: In vitro antibacterial evaluation: minimum inhibitory concentration (MIC), broth dilution method; type: cell-based; conditions: broth dilution, 5×10^5 CFU/mL, 18 hours at 35° C.
Procedure, shortened: (§1)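 Susceptibility determined by NCCLS-recommended broth dilution (M7-A2), Muller-Hinton II […]. Concentration span 64-0.06 μg/mL, inoculum 5×10^5 CFU/mL. Isolates include strains resistant to methicillin, penicillin and/or vancomycin.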

Streptococcus sp. = assay: as above; type: cell-based; conditions: broth dilution, 5×10^5 CFU/mL, 18 hours at 35° C.
Procedure, shortened: as §1

Staphylococcus sp. = assay: as above; type: cell-based; conditions: for MIC Staphylococcus aureus (ATCC 29213): strain ATCC 29213; for MIC Staphylococcus aureus (GC 1131): strain GC 1131; for MIC Staphylococcus aureus (GC 3051): strain GC 3051; for MIC Staphylococcus aureus (GC 3053): strain GC 3053; for MIC Staphylococcus aureus (GC 4541): strain GC 4541; for MIC Staphylococcus aureus (GC 4542): strain GC 4542; for MIC Staphylococcus aureus-SMITH (GC 4543): strain GC 4543; for MIC Staphylococcus aureus (GC 4544): strain GC 4544; for MIC Staphylococcus aureus (GC 4545): strain GC 4545; for MIC Staphylococcus haemolyticus (GC 4546): strain GC 4546; for MIC Coagulase Negative Staphylococcus (GC 4547): strain GC 4547; for MIC Coagulase Negative Staphylococcus (GC 4548): strain GC 4548; for MIC Coagulase Negative Staphylococcus (GC 4549): strain GC 4549; for MIC Coagulase Negative Staphylococcus (GC 4551): strain GC 4551; for MIC Coagulase Negative Staphylococcus (GC 6257): strain GC 6257
Procedure, shortened: as §1

Escherichia coli = assay: as above; type: cell-based; conditions: 5×10^5 CFU/mL, 18 hours at 35° C.
Procedure, shortened: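 MIC read as lowest drug level preventing visible growth. Organisms at 5×10^5 CFU/mL were exposed to a 64-0.06 μg/mL dilution series in Muller-Hinton II […] following NCCLS broth dilution standard M7-A2.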

[2] = broth dilution, 18 hours at 35° C.

CC(c1ccccc1)C1NC(=O)CNC(=O)C(CO)NC(=O)C(C(O)C2CNC(=N)N2C2OC(CO)C(O)C(O)C2O)NC(=O)C(C(O)C2CNC(=N)N2)NC(=O)C(Cc2ccc(OC3OC(CO)C(OC4OC5COC(CC6CCN(C(=O)OCc7ccccc7)CC6)OC5C(O)C4O)C(O)C3O)cc2)NC1=O (stereo not drawn) [Example 113]
4 µg/mL: MIC Enterococccus faecalis (GC 2691) (Enterococcus sp.) | MIC Enterococcus faecalis (GC 2242) (Enterococcus sp.)
32 µg/mL: MIC Escherichia coli (ATCC 25922) (Escherichia coli) | MIC Escherichia coli (GC 4559) (Escherichia coli)
2 µg/mL: MIC Enterococccus avium (GC 4558) (Enterococcus sp.) | MIC Enterococccus faecalis (ATCC 29212) (Enterococcus sp.) | MIC Enterococccus faecalis (GC 3059) (Enterococcus sp.) | MIC Enterococccus faecalis (GC 4552) (Enterococcus sp.) | MIC Enterococccus faecalis (GC 4553) (Enterococcus sp.) | MIC Enterococccus faecalis (GC 4554) (Enterococcus sp.) | MIC Enterococccus faecalis (GC 6189) (Enterococcus sp.) | MIC Enterococccus faecium (GC 2243) (Enterococcus sp.) | MIC Enterococccus faecium (GC 4556) (Enterococcus sp.) | MIC Enterococccus faecium (GC 4557) (Enterococcus sp.) | MIC Staphylococcus aureus (GC 1131) (Staphylococcus sp.) | MIC Staphylococcus aureus (GC 1131) (Staphylococcus sp.; [2]) | MIC Staphylococcus aureus (GC 4544) (Staphylococcus sp.) | MIC Staphylococcus aureus (GC 4544) (Staphylococcus sp.; [2])
0.5 µg/mL: MIC Coagulase Negative Staphylococcus (GC 4548) (Staphylococcus sp.) | MIC Coagulase Negative Staphylococcus (GC 4548) (Staphylococcus sp.; [2]) | MIC Coagulase Negative Staphylococcus (GC 6257) (Staphylococcus sp.) | MIC Coagulase Negative Staphylococcus (GC 6257) (Staphylococcus sp.; [2])
<0.06 µg/mL: MIC Streptococcus pneumoniae (GC 1894) (Streptococcus sp.) | MIC Streptococcus pneumoniae (GC 4565) (Streptococcus sp.) | MIC Streptococcus pneumonine (ATCC 6301) (Streptococcus sp.) | MIC Streptococcus pyogenes (GC 4563) (Streptococcus sp.)
0.26 mg/kg: median effective dose (ED50), Staphylococcus aureus-SMITH (GC 4543) [1]
1 µg/mL: MIC Staphylococcus aureus (ATCC 29213) (Staphylococcus sp.) | MIC Staphylococcus aureus (ATCC 29213) (Staphylococcus sp.; [2]) | MIC Staphylococcus aureus (GC 3051) (Staphylococcus sp.) | MIC Staphylococcus aureus (GC 3051) (Staphylococcus sp.; [2]) | MIC Staphylococcus aureus (GC 3053) (Staphylococcus sp.) | MIC Staphylococcus aureus (GC 3053) (Staphylococcus sp.; [2]) | MIC Staphylococcus aureus (GC 4541) (Staphylococcus sp.) | MIC Staphylococcus aureus (GC 4541) (Staphylococcus sp.; [2]) | MIC Staphylococcus aureus (GC 4542) (Staphylococcus sp.) | MIC Staphylococcus aureus (GC 4542) (Staphylococcus sp.; [2]) | MIC Staphylococcus aureus-SMITH (GC 4543) (Staphylococcus sp.; 18 hours at 35° C.) | MIC Staphylococcus aureus-SMITH (GC 4543) (Staphylococcus sp.; [2]) | MIC Staphylococcus aureus (GC 4545) (Staphylococcus sp.) | MIC Staphylococcus aureus (GC 4545) (Staphylococcus sp.; [2]) | MIC Staphylococcus haemolyticus (GC 4546) (Staphylococcus sp.) | MIC Staphylococcus haemolyticus (GC 4546) (Staphylococcus sp.; [2]) | MIC Coagulase Negative Staphylococcus (GC 4547) (Staphylococcus sp.) | MIC Coagulase Negative Staphylococcus (GC 4547) (Staphylococcus sp.; [2]) | MIC Coagulase Negative Staphylococcus (GC 4549) (Staphylococcus sp.) | MIC Coagulase Negative Staphylococcus (GC 4549) (Staphylococcus sp.; [2]) | MIC Coagulase Negative Staphylococcus (GC 4551) (Staphylococcus sp.) | MIC Coagulase Negative Staphylococcus (GC 4551) (Staphylococcus sp.; [2]) | MIC Escherichia coli (GC 4560) (Escherichia coli)
0.12 µg/mL: MIC Streptococcus agalactiae (GC 4564) (Streptococcus sp.)
